From publication PMC9950431, “A bivalent remipede toxin promotes calcium release via ryanodine receptor activation” (Nature Communications, 2023)
“Also recorded” adds a separate entry of the source.

What was measured:
[1] = molecular target: T1, ryanodine receptor (Oryctolagus cuniculus, UniProt P11716); assay: Single channel recording, washout (Woearly, Wolate) after Xt3a, sheet "Figure 3B" (RyR isoform not given); assay type: biochemical
T1 construct: skeletal SR vesicles were isolated from the back and leg muscles of mature female New Zealand white rabbits; from tissue; host or cells: rabbit back and leg skeletal muscle, sarcoplasmic reticulum vesicles
From the text: Supplement 41467_2023_36579_MOESM6_ESM.xlsx, sheet "Figure 3B" | column: Woearly; Wolate

[2] = system: α3β2/α3β4 nAChR (α3-containing nAChR); assay: FLIPR Ca2+ assay, inhibition of endogenous α3-containing nAChR; assay type: cell-based, human; conditions: for Ca2+ response relative to control response: 3 µM Xt3a pre-treatment, nicotine 30 μM, over 300 s
Experimental: (§1) SH-SY5Y human neuroblastoma cells (European Collection of Authenticated Cell Culture, Sigma Aldrich, 94030304-1VL) were cultured in RPMI media (ThermoFisher Scientific, Scoresby, Australia) supplemented with 15% foetal bovine serum and L-glutamine (1 mM) and passaged at approximately 80% confluency with TrypLE Express (Thermo Fisher, Australia). For fluorescence imaging, cells were plated on CellBIND (Corning) 384-well black-walled imaging plates at a density of 20,000–30,000 cells/well in complete media and cultured for 48 h at 37 °C/5% CO2.
Briefly, SH-SY5Y cells were loaded with Calcium 4 no-wash dye (Molecular Devices) diluted in physiological salt solution (composition in mM: NaCl 140, D-glucose 11.5, KCl 5.9, MgCl2 1.4, NaH2PO4 1.2, NaHCO3 5, CaCl2 1.8, HEPES 10) for 30 min at 37 °C. A two-addition FLIPR^Tetra (Molecular Devices) protocol using the following settings was used to measure fluorescence responses: excitation 470–495 nm; emission 515–575 nm; excitation intensity 80%; excitation duration 0.8 s; gain 140; read interval 1/s; read number 300/addition. Responses mediated via endogenously expressed ion channels were elicited by addition of: choline (30 μM)/PNU-120596 (10 μM) for α7 nAChR-mediated responses; nicotine (30 μM) for α3β2/α3β4 nAChR-mediated responses; KCl (90 mM)/CaCl2 (5 mM) for CaV1.3-mediated responses; KCl (90 mM)/CaCl2 (5 mM) + nifedipine (10 μM) for CaV2.2-mediated responses; vertridine (70 μM) for NaV1.2-mediated responses; and veratridine (4 μM)/OD1 (300 nM) for NaV1.7-mediated responses. Raw fluorescence readings were converted to response over baseline using the analysis tool Screenworks 3.1.1.4 (Molecular Devices) and were expressed relative to the maximum increase in fluorescence of control responses and plotted using GraphPad Prism 9.3.1.
In the cell-based FLIPR assays statistical analysis was performed using GraphPad Prism 9.3.1. Statistical significance was defined as p < 0.05, and determined by one-sample t-test assessing difference to the control value of 100%. In α7 nAChR, α3-containing nAChR, CaV1.3, CaV2.2, NaV1.2 and NaV1.7 channels (Supplementary Fig. 5B), with distribution (t) and degrees of freedom (df) being: t = 0.9683, df = 2 (α7); t = 1.338, df = 2 (α3); t = 1.775, df = 2 (NaV1.2); t = 1.478

[3] = system: SH-SY5Y neuroblastoma cells; assay: FLIPR intracellular Ca2+ assay, SH-SY5Y cells (direct response); assay type: cell-based, human; conditions: Xt3a 3 µM
Experimental: as §1
Briefly, SH-SY5Y cells were loaded with Calcium 4 no-wash dye (Molecular Devices) diluted in physiological salt solution (composition in mM: NaCl 140, D-glucose 11.5, KCl 5.9, MgCl2 1.4, NaH2PO4 1.2, NaHCO3 5, CaCl2 1.8, HEPES 10) for 30 min at 37 °C. A two-addition FLIPR^Tetra (Molecular Devices) protocol using the following settings was used to measure fluorescence responses: excitation 470–495 nm; emission 515–575 nm; excitation intensity 80%; excitation duration 0.8 s; gain 140; read interval 1/s; read number 300/addition. […] Raw fluorescence readings were converted to response over baseline using the analysis tool Screenworks 3.1.1.4 (Molecular Devices) and were expressed relative to the maximum increase in fluorescence of control responses and plotted using GraphPad Prism 9.3.1.

T1 sequence (P11716 whole entry, canonical isoform): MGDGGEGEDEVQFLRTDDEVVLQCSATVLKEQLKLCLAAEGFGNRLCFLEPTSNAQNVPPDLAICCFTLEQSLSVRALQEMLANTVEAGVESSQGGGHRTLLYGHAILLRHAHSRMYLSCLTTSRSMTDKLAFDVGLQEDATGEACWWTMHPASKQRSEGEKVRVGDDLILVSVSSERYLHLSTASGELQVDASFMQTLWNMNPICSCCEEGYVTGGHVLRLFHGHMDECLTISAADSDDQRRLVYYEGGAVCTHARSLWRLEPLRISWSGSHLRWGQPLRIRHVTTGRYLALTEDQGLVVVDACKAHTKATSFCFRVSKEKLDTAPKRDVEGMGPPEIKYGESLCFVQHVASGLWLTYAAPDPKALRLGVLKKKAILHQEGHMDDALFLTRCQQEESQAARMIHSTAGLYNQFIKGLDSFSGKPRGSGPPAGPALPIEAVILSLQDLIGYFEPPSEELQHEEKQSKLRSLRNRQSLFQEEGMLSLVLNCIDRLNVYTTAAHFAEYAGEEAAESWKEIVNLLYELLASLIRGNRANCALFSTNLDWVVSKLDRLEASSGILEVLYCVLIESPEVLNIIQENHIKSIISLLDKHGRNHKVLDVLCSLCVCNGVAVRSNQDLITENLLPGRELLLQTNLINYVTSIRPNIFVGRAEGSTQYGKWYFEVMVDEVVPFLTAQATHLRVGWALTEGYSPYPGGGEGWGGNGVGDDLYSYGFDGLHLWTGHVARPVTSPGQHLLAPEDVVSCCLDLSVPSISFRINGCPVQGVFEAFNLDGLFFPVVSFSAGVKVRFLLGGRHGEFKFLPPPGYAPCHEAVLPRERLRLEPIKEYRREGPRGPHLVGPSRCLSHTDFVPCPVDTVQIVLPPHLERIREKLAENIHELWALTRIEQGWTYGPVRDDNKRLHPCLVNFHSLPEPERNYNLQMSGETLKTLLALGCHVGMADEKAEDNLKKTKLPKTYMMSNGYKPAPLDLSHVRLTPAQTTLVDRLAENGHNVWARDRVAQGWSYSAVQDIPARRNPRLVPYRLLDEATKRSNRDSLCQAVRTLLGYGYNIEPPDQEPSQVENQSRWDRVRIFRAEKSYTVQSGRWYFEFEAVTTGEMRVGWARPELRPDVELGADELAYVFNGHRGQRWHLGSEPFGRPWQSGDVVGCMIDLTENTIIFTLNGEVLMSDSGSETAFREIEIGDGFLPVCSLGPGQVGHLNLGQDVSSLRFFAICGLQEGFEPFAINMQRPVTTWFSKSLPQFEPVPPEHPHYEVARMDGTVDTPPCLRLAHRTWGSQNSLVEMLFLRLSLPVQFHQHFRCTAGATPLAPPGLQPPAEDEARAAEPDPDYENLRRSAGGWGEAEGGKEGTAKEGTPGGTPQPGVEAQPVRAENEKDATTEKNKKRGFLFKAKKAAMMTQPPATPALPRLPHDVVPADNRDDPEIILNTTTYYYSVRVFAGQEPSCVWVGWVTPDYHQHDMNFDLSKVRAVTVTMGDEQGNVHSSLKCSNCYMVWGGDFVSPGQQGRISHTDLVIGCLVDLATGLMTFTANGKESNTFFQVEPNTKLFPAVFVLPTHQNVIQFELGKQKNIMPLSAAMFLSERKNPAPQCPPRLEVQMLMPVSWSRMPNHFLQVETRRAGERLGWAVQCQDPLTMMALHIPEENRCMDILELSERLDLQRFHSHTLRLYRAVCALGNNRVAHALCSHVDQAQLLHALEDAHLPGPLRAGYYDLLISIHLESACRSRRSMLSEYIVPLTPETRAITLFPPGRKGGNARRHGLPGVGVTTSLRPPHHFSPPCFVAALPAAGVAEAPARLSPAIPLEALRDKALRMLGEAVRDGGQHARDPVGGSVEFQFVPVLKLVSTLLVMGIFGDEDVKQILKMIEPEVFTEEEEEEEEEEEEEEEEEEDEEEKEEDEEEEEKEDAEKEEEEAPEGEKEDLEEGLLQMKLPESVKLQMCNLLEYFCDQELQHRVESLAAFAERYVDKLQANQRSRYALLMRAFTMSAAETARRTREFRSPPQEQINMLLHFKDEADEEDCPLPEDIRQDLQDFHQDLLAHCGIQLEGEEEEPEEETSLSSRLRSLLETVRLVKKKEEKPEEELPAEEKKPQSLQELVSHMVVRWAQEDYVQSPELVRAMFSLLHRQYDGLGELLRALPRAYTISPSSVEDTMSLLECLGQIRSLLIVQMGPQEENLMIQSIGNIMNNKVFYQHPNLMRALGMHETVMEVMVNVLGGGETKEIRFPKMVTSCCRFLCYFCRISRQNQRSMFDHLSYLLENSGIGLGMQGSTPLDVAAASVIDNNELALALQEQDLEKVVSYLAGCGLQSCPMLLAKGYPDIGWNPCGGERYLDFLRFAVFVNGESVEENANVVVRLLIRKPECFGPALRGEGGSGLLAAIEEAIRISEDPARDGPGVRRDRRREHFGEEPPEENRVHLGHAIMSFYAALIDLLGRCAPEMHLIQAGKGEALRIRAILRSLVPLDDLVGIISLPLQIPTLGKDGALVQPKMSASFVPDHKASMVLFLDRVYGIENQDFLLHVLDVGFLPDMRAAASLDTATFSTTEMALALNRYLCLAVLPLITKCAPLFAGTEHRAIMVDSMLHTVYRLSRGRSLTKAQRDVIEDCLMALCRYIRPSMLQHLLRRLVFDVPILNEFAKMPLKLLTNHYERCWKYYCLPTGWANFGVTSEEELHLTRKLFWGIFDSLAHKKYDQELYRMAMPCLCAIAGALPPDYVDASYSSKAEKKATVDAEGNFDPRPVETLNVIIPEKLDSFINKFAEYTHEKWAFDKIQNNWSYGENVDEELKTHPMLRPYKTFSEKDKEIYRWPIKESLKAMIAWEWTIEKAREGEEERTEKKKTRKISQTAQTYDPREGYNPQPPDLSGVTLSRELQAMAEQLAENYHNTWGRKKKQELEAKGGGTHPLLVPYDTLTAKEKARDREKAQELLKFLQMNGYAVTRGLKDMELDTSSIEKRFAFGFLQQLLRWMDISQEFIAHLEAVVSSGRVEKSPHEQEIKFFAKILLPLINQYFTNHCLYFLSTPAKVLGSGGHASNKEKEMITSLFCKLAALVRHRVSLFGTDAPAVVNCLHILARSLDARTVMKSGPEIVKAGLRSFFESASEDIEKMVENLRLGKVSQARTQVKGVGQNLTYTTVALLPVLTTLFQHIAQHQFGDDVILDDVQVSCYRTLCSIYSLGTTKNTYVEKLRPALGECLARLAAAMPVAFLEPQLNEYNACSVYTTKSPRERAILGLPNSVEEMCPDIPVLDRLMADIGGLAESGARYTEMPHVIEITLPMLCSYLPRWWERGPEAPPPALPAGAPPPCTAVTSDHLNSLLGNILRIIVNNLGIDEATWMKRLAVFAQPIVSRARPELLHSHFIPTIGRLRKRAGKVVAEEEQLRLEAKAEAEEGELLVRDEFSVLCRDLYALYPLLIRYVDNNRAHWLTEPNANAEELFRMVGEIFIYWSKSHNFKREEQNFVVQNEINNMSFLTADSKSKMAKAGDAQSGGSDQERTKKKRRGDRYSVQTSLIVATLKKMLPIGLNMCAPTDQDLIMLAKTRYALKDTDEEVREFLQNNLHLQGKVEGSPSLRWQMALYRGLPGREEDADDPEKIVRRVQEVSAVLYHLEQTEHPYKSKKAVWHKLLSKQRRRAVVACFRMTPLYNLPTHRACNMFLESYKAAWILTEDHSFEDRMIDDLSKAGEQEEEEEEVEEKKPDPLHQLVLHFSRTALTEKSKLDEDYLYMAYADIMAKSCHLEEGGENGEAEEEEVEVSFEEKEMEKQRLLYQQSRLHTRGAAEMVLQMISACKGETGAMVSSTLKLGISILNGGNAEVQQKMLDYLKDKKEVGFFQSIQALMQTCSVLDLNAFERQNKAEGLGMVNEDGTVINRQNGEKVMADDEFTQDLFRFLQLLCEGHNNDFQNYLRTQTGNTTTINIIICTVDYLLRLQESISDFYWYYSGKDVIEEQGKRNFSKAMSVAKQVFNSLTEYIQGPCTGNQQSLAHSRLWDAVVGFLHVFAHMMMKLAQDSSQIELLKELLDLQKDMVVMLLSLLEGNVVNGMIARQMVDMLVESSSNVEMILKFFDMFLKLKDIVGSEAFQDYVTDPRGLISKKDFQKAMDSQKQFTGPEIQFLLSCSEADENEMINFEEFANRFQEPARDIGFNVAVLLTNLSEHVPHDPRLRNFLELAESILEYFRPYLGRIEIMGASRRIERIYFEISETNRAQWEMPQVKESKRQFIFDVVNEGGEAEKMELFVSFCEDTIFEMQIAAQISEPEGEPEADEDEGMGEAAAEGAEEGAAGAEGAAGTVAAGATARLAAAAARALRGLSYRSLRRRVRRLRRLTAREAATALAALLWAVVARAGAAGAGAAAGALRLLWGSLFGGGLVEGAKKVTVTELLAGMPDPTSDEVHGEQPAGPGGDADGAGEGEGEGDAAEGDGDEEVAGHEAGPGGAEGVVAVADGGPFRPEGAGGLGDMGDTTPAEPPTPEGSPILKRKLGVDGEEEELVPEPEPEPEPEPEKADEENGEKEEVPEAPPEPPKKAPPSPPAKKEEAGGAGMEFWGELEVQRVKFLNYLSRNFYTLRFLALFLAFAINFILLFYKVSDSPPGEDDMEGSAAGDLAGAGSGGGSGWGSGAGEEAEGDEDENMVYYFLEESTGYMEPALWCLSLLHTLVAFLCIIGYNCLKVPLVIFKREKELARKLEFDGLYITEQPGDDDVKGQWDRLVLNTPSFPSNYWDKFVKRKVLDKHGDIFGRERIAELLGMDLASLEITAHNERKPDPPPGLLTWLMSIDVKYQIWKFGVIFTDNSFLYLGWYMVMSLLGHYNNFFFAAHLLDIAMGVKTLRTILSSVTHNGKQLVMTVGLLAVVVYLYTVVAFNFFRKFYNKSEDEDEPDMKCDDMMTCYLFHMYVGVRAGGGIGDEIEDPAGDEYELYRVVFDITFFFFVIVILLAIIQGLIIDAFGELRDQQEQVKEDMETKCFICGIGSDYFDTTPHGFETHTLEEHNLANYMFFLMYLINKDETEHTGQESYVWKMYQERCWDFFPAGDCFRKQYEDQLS

Substance: φ-Xibalbin3-Xt3a
- rel Po ([1]; Woearly after 10nM Xt3a vs 1 micoM Ca, CT1124n): 1.432
- rel Po ([1]; Woearly after 10nM Xt3a vs 1 micoM Ca, CT1124p): 0.937
- rel Po ([1]; Woearly after 10nM Xt3a vs 1 micoM Ca, CT1125p (r7)): 0.4348
- rel Po ([1]; Woearly after 10nM Xt3a vs 1 micoM Ca, CT1125p (r12)): 0.3976
- rel Po ([1]; Woearly after 10nM Xt3a vs 1 micoM Ca, CT1126n): 1.917
- rel Po ([1]; Woearly after 10nM Xt3a vs 1 micoM Ca, CT1126p): 0.1557
- rel Po ([1]; Woearly after 10nM Xt3a vs 1 micoM Ca, CT1129p): 0.23
- rel Po ([1]; Woearly after 10nM Xt3a vs 1 micoM Ca, mean of 7 records): 0.7864
- rel Po ([1]; Woearly after 1 microM Xt3a vs 1 micoM Ca, CT1134 n): 4.4537
- rel Po ([1]; Woearly after 1 microM Xt3a vs 1 micoM Ca, CT1134 p): 3.797
- rel Po ([1]; Woearly after 1 microM Xt3a vs 1 micoM Ca, CT1135 n): 34.6466
- rel Po ([1]; Woearly after 1 microM Xt3a vs 1 micoM Ca, CT1136 n): 1.926
- rel Po ([1]; Woearly after 1 microM Xt3a vs 1 micoM Ca, CT1136 p): 1.125
- rel Po ([1]; Woearly after 1 microM Xt3a vs 1 micoM Ca, CT1137 n): 1.615
- rel Po ([1]; Woearly after 1 microM Xt3a vs 1 micoM Ca, CT1137p): 7.5
- rel Po ([1]; Woearly after 1 microM Xt3a vs 1 micoM Ca, CT1138n): 1
- rel Po ([1]; Woearly after 1 microM Xt3a vs 1 micoM Ca, CT1138p): 8.033
- rel Po ([1]; Woearly after 1 microM Xt3a vs 1 micoM Ca, mean (CT1135 p cell empty)): 7.122
- rel Po ([1]; Wolate after 10nM Xt3a vs 1 micoM Ca, CT1124n): 0.8317
- rel Po ([1]; Wolate after 10nM Xt3a vs 1 micoM Ca, CT1124p): 12.1926
- rel Po ([1]; Wolate after 10nM Xt3a vs 1 micoM Ca, CT1125p (r7)): 0.7826
- rel Po ([1]; Wolate after 10nM Xt3a vs 1 micoM Ca, CT1125p (r12)): 0.9398
- rel Po ([1]; Wolate after 10nM Xt3a vs 1 micoM Ca, CT1126n): 0.9549
- rel Po ([1]; Wolate after 10nM Xt3a vs 1 micoM Ca, CT1126p): 1.131
- rel Po ([1]; Wolate after 10nM Xt3a vs 1 micoM Ca, CT1129p): 0.13
- rel Po ([1]; Wolate after 10nM Xt3a vs 1 micoM Ca, mean of 7 records): 2.423
- rel Po ([1]; Wolate after 1 microM Xt3a vs 1 micoM Ca, CT1134 n): 20.9074
- rel Po ([1]; Wolate after 1 microM Xt3a vs 1 micoM Ca, CT1134 p): 6.491
- rel Po ([1]; Wolate after 1 microM Xt3a vs 1 micoM Ca, CT1135 n): 34.2069
- rel Po ([1]; Wolate after 1 microM Xt3a vs 1 micoM Ca, CT1135 p): 0.02609
- rel Po ([1]; Wolate after 1 microM Xt3a vs 1 micoM Ca, CT1136 n): 4.7037
- rel Po ([1]; Wolate after 1 microM Xt3a vs 1 micoM Ca, CT1136 p): 2
- rel Po ([1]; Wolate after 1 microM Xt3a vs 1 micoM Ca, CT1137 n): 0.6923
- rel Po ([1]; Wolate after 1 microM Xt3a vs 1 micoM Ca, CT1137p): 0.75
- rel Po ([1]; Wolate after 1 microM Xt3a vs 1 micoM Ca, CT1138n): 2.952
- rel Po ([1]; Wolate after 1 microM Xt3a vs 1 micoM Ca, CT1138p): 2.133
- rel Po ([1]; Wolate after 1 microM Xt3a vs 1 micoM Ca, mean of 10 records): 7.486
- Ca2+ response relative to control response ([2]; replicate 1): 102.763%
- Ca2+ response relative to control response ([2]; replicate 2): 100.13%
- Ca2+ response relative to control response ([2]; replicate 3): 100.441%
- inhibition of Ca2+ responses ([2]; Xt3a 3 µM): did not inhibit Ca^2+ responses
- increase in intracellular Ca2+ [3]: did not elicit an increase in intracellular Ca^2+; also recorded: does not elicit an increase in intracellular Ca2+ responses
